Laboratory results as given in patent US20180332879A1, “AGENT FOR IMPROVING AFTERTASTE HAVING HIGH INTENSITY SWEETENERS” (NAGAOKA CO., LTD., priority 2017, published 2018).
Residues, ends and D or L forms follow the SMILES beside them.

How the values were obtained:
[1] = Sweetness degree and taste characteristics of sweetener solutions equivalent to 8% by mass aqueous sugar solution; details: intensity of sweetness, sweetness degree of sugar defined as 1
Protocol: Solutions, each having a sweetness degree corresponding to an 8% by mass aqueous sugar solution, were prepared using the various high-intensity sweeteners shown in Table 1. In Table 1, each of the sweetness degrees represents the intensity of sweetness wherein the sweetness degree of sugar is defined as 1, and each of the concentrations represents the concentration of a high-intensity sweetener in the solution.

[2] = Sensory evaluation by seven panelists: improvement of the quality of sweetness and impure taste of a high-intensity sweetener solution after adding the improving agent; details: summary of Table 2
Protocol: The resultant solution 1 (an aspartame solution) in Preparation Example 3 was added the resultant solution in Preparation Example 1 in an amount of 0.033% by mass. The concentration of isobutyl angelate added to the solution 1 was 0.0099 ppm by mass. The taste of the solution 1 having isobutyl angelate added thereto was evaluated by the following method.
The solution 1 (without addition of isobutyl angelate) was tasted by seven panelists (one twenty-something male, one thirty-something male, one forty-something male, one fifty-something male, one sixty-something male, and one twenty-something female and one thirty-something female). Subsequently, the seven panelists rinsed their mouths sufficiently, and then the solution 1 containing isobutyl angelate (with addition of isobutyl angelate) was tasted by the seven panelists. The panelists compared the isobutyl-angelate-free solution with the isobutyl-angelate-added solution, and then determined whether or not the quality of sweetness and the impure taste of the isobutyl-angelate-added solution were improved compared with the isobutyl-angelate-free solution in accordance with the following criteria. When the sum total of the scores determined by the seven panelists was 10 points or greater, it was determined that the quality of sweetness and the impure taste were improved. […]

Structure (SMILES) | Sweetness degree [1] [times] | Unpleasant aftertaste and impure taste (harsh, astringent) of a high-intensity sweetener in a solution [2]
CC1=CC(=O)NS(=O)(=O)O1 [Acesulfame potassium] | 200 | –
OC[C@H]1O[C@H](O[C@]2(CCl)O[C@H](CCl)[C@@H](O)[C@@H]2O)[C@H](O)[C@@H](O)[C@H]1Cl [Sucralose] | 600 | –
COC(=O)[C@H](Cc1ccccc1)NC(=O)[C@@H](N)CC(=O)O [Aspartame] (H-Asp-Phe-OMe) | 200 | –
C/C=C(/C)C(=O)OCC(C)C [isobutyl angelate, Isobutyl angelate] | – | can be improved
